Source: patent US9326506B2, “Preparation method, agricultural composition and applications of natural brassinolide analogs” (CHENGDU NEWSUN CROPSCIENCE CO., LTD, priority 2012, dated 2016)

Test system: rice
Assay: Low temperature assay on rice seedlings
Assay type: in vivo
Procedure, shortened: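 Nine-day-old etiolated rice seedlings (grown on water at 30 °C±2 °C, dark) immersed in brassinolide analogues at 1–0.0001 mg/L or pure water, held at 1–5 °C for 24 hr. Plant height, leaf area, root weight read at 3, 6, 9, 12 days; leaf and tiller number at 12 days.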

CC(C)[C@H](C)[C@@H](O)[C@H](O)[C@@H](C)[C@H]1CCC2C3CC(=O)C4C[C@H](O)CC[C@]4(C)C3CC[C@@]21C (stereo partly shown) [BR4]
Height (0.01 mg/l, 3 °C, 9 days): 7.5 cm | Weight of root (0.01 mg/l, 3 °C, 9 days): 2.9 g | Area of leaf (0.01 mg/l, 3 °C, 12 days): 13.2 cm^2 | Height (0.01 mg/l, 3 °C, 12 days): 7.8 cm | Number of leaf (0.01 mg/l, 3 °C, 12 days): 3 | Number of tiller (0.01 mg/l, 3 °C, 12 days): 2 | Weight of root (0.01 mg/l, 3 °C, 12 days): 2.9 g | Area of leaf (0.01 mg/l, 4 °C, 3 days): 10.8 cm^2 | Height (0.01 mg/l, 4 °C, 3 days): 7 cm | Weight of root (0.01 mg/l, 4 °C, 3 days): 2.5 g | Area of leaf (0.01 mg/l, 4 °C, 6 days): 12.4 cm^2 | Height (0.01 mg/l, 4 °C, 6 days): 7.4 cm | Weight of root (0.01 mg/l, 4 °C, 6 days): 2.7 g | Area of leaf (0.01 mg/l, 4 °C, 9 days): 13 cm^2 | Height (0.01 mg/l, 4 °C, 9 days): 7.7 cm | Weight of root (0.01 mg/l, 4 °C, 9 days): 2.9 g | Area of leaf (0.01 mg/l, 4 °C, 12 days): 13.5 cm^2 | Height (0.01 mg/l, 4 °C, 12 days): 7.8 cm | Number of leaf (0.01 mg/l, 4 °C, 12 days): 3 | Number of tiller (0.01 mg/l, 4 °C, 12 days): 2 | Weight of root (0.01 mg/l, 4 °C, 12 days): 3.0 g | Area of leaf (0.01 mg/l, 5 °C, 3 days): 10.3 cm^2 | Height (0.01 mg/l, 5 °C, 3 days): 7.2 cm | Weight of root (0.01 mg/l, 5 °C, 3 days): 2.8 g | Area of leaf (0.01 mg/l, 5 °C, 6 days): 13.1 cm^2 | Height (0.01 mg/l, 5 °C, 6 days): 7.4 cm | Weight of root (0.01 mg/l, 5 °C, 6 days): 3.0 g | Area of leaf (0.01 mg/l, 5 °C, 9 days): 16.4 cm^2 | Height (0.01 mg/l, 5 °C, 9 days): 7.8 cm | Weight of root (0.01 mg/l, 5 °C, 9 days): 3.4 g | Area of leaf (0.01 mg/l, 5 °C, 12 days): 17 cm^2 | Height (0.01 mg/l, 5 °C, 12 days): 8.2 cm | Number of leaf (0.01 mg/l, 5 °C, 12 days): 4 | Number of tiller (0.01 mg/l, 5 °C, 12 days): 3 | Weight of root (0.01 mg/l, 5 °C, 12 days): 3.9 g | Area of leaf (0.1 mg/l, 1 °C, 3 days): 10 cm^2 | Height (0.1 mg/l, 1 °C, 3 days): 7.1 cm | Weight of root (0.1 mg/l, 1 °C, 3 days): 2.8 g | Area of leaf (0.1 mg/l, 1 °C, 6 days): 11 cm^2 | Height (0.1 mg/l, 1 °C, 6 days): 7.2 cm | Weight of root (0.1 mg/l, 1 °C, 6 days): 2.9 g | Area of leaf (0.1 mg/l, 1 °C, 9 days): 12.1 cm^2 | Height (0.1 mg/l, 1 °C, 9 days): 7.3 cm | Weight of root (0.1 mg/l, 1 °C, 9 days): 3.3 g | Area of leaf (0.1 mg/l, 1 °C, 12 days): 13.1 cm^2 | Height (0.1 mg/l, 1 °C, 12 days): 7.3 cm | Number of leaf (0.1 mg/l, 1 °C, 12 days): 3 | Number of tiller (0.1 mg/l, 1 °C, 12 days): 3 | Weight of root (0.1 mg/l, 1 °C, 12 days): 3.6 g | Area of leaf (0.1 mg/l, 2 °C, 3 days): 10.2 cm^2 | Height (0.1 mg/l, 2 °C, 3 days): 7.1 cm | Weight of root (0.1 mg/l, 2 °C, 3 days): 2.8 g | Area of leaf (0.1 mg/l, 2 °C, 6 days): 11.2 cm^2 | Height (0.1 mg/l, 2 °C, 6 days): 7.1 cm | Weight of root (0.1 mg/l, 2 °C, 6 days): 3.1 g | Area of leaf (0.1 mg/l, 2 °C, 9 days): 12.6 cm^2 | Height (0.1 mg/l, 2 °C, 9 days): 7.3 cm | Weight of root (0.1 mg/l, 2 °C, 9 days): 3.1 g | Area of leaf (0.1 mg/l, 2 °C, 12 days): 13.2 cm^2 | Height (0.1 mg/l, 2 °C, 12 days): 7.4 cm | Number of leaf (0.1 mg/l, 2 °C, 12 days): 3 | Number of tiller (0.1 mg/l, 2 °C, 12 days): 3 | Weight of root (0.1 mg/l, 2 °C, 12 days): 3.2 g | Area of leaf (0.1 mg/l, 3 °C, 3 days): 10.5 cm^2 | Height (0.1 mg/l, 3 °C, 3 days): 7.3 cm | Weight of root (0.1 mg/l, 3 °C, 3 days): 2.5 g | Area of leaf (0.1 mg/l, 3 °C, 6 days): 12 cm^2 | Height (0.1 mg/l, 3 °C, 6 days): 7.4 cm | Weight of root (0.1 mg/l, 3 °C, 6 days): 2.7 g | Area of leaf (0.1 mg/l, 3 °C, 9 days): 12.1 cm^2 | Height (0.1 mg/l, 3 °C, 9 days): 7.8 cm | Weight of root (0.1 mg/l, 3 °C, 9 days): 2.7 g | Area of leaf (0.1 mg/l, 3 °C, 12 days): 13.4 cm^2 | Height (0.1 mg/l, 3 °C, 12 days): 7.9 cm | Number of leaf (0.1 mg/l, 3 °C, 12 days): 3 | Number of tiller (0.1 mg/l, 3 °C, 12 days): 2 | Weight of root (0.1 mg/l, 3 °C, 12 days): 2.9 g | Area of leaf (0.1 mg/l, 4 °C, 3 days): 10.6 cm^2 | Height (0.1 mg/l, 4 °C, 3 days): 7.3 cm | Weight of root (0.1 mg/l, 4 °C, 3 days): 2.5 g | Area of leaf (0.1 mg/l, 4 °C, 6 days): 12 cm^2 | Height (0.1 mg/l, 4 °C, 6 days): 7.4 cm | Weight of root (0.1 mg/l, 4 °C, 6 days): 2.6 g | Area of leaf (0.1 mg/l, 4 °C, 9 days): 13.2 cm^2 | Height (0.1 mg/l, 4 °C, 9 days): 7.8 cm | Weight of root (0.1 mg/l, 4 °C, 9 days): 2.9 g | Area of leaf (0.1 mg/l, 4 °C, 12 days): 13.4 cm^2 | Height (0.1 mg/l, 4 °C, 12 days): 8 cm | Number of leaf (0.1 mg/l, 4 °C, 12 days): 3 | Number of tiller (0.1 mg/l, 4 °C, 12 days): 2 | Weight of root (0.1 mg/l, 4 °C, 12 days): 3.1 g | Area of leaf (0.1 mg/l, 5 °C, 3 days): 11 cm^2 | Height (0.1 mg/l, 5 °C, 3 days): 7.4 cm | Weight of root (0.1 mg/l, 5 °C, 3 days): 2.9 g | Area of leaf (0.1 mg/l, 5 °C, 6 days): 12.1 cm^2 | Height (0.1 mg/l, 5 °C, 6 days): 7.5 cm | Weight of root (0.1 mg/l, 5 °C, 6 days): 3.1 g | Area of leaf (0.1 mg/l, 5 °C, 9 days): 16.2 cm^2 | Height (0.1 mg/l, 5 °C, 9 days): 8 cm | Weight of root (0.1 mg/l, 5 °C, 9 days): 3.5 g | Area of leaf (0.1 mg/l, 5 °C, 12 days): 17.8 cm^2 | Height (0.1 mg/l, 5 °C, 12 days): 8.1 cm | Number of leaf (0.1 mg/l, 5 °C, 12 days): 3 | Number of tiller (0.1 mg/l, 5 °C, 12 days): 2 | Weight of root (0.1 mg/l, 5 °C, 12 days): 4.1 g | Area of leaf (1 mg/l, 1 °C, 3 days): 10 cm^2 | Height (1 mg/l, 1 °C, 3 days): 6.8 cm | Weight of root (1 mg/l, 1 °C, 3 days): 2.6 g | Area of leaf (1 mg/l, 1 °C, 6 days): 11 cm^2 | Height (1 mg/l, 1 °C, 6 days): 7 cm | Weight of root (1 mg/l, 1 °C, 6 days): 3.1 g | Area of leaf (1 mg/l, 1 °C, 9 days): 12.4 cm^2 | Height (1 mg/l, 1 °C, 9 days): 7.1 cm | Weight of root (1 mg/l, 1 °C, 9 days): 3.2 g | Area of leaf (1 mg/l, 1 °C, 12 days): 13 cm^2 | Height (1 mg/l, 1 °C, 12 days): 7.7 cm | Number of leaf (1 mg/l, 1 °C, 12 days): 3 | Number of tiller (1 mg/l, 1 °C, 12 days): 3 | Weight of root (1 mg/l, 1 °C, 12 days): 3.7 g | Area of leaf (1 mg/l, 2 °C, 3 days): 10.1 cm^2 | Height (1 mg/l, 2 °C, 3 days): 7 cm | Weight of root (1 mg/l, 2 °C, 3 days): 2.55 g | Area of leaf (1 mg/l, 2 °C, 6 days): 11.7 cm^2 | Height (1 mg/l, 2 °C, 6 days): 7.2 cm | Weight of root (1 mg/l, 2 °C, 6 days): 3.0 g | Area of leaf (1 mg/l, 2 °C, 9 days): 12 cm^2 | Height (1 mg/l, 2 °C, 9 days): 7.4 cm | Weight of root (1 mg/l, 2 °C, 9 days): 3.2 g | Area of leaf (1 mg/l, 2 °C, 12 days): 13 cm^2 | Height (1 mg/l, 2 °C, 12 days): 8 cm | Number of leaf (1 mg/l, 2 °C, 12 days): 3 | Number of tiller (1 mg/l, 2 °C, 12 days): 3 | Weight of root (1 mg/l, 2 °C, 12 days): 3.7 g | Area of leaf (1 mg/l, 3 °C, 3 days): 10.4 cm^2 | Height (1 mg/l, 3 °C, 3 days): 7 cm | Weight of root (1 mg/l, 3 °C, 3 days): 2.5 g | Area of leaf (1 mg/l, 3 °C, 6 days): 12 cm^2 | Height (1 mg/l, 3 °C, 6 days): 7.5 cm | Weight of root (1 mg/l, 3 °C, 6 days): 2.6 g | Area of leaf (1 mg/l, 3 °C, 9 days): 12 cm^2 | Height (1 mg/l, 3 °C, 9 days): 7.7 cm | Weight of root (1 mg/l, 3 °C, 9 days): 2.6 g | Area of leaf (1 mg/l, 3 °C, 12 days): 13.2 cm^2 | Height (1 mg/l, 3 °C, 12 days): 8.1 cm | Number of leaf (1 mg/l, 3 °C, 12 days): 3 | Number of tiller (1 mg/l, 3 °C, 12 days): 2 | Weight of root (1 mg/l, 3 °C, 12 days): 2.9 g | Area of leaf (1 mg/l, 4 °C, 3 days): 10.7 cm^2 | Height (1 mg/l, 4 °C, 3 days): 7.3 cm | Weight of root (1 mg/l, 4 °C, 3 days): 2.5 g | Area of leaf (1 mg/l, 4 °C, 6 days): 12 cm^2 | Height (1 mg/l, 4 °C, 6 days): 7.5 cm | Weight of root (1 mg/l, 4 °C, 6 days): 2.7 g | Area of leaf (1 mg/l, 4 °C, 9 days): 13.2 cm^2 | Height (1 mg/l, 4 °C, 9 days): 7.8 cm | Weight of root (1 mg/l, 4 °C, 9 days): 3.0 g | Area of leaf (1 mg/l, 4 °C, 12 days): 14 cm^2 | Height (1 mg/l, 4 °C, 12 days): 8.2 cm | Number of leaf (1 mg/l, 4 °C, 12 days): 3 | Number of tiller (1 mg/l, 4 °C, 12 days): 2 | Weight of root (1 mg/l, 4 °C, 12 days): 3.2 g | Area of leaf (1 mg/l, 5 °C, 3 days): 11.1 cm^2 | Height (1 mg/l, 5 °C, 3 days): 7.4 cm | Weight of root (1 mg/l, 5 °C, 3 days): 2.9 g | Area of leaf (1 mg/l, 5 °C, 6 days): 13 cm^2 | Height (1 mg/l, 5 °C, 6 days): 7.4 cm | Weight of root (1 mg/l, 5 °C, 6 days): 3.5 g | Area of leaf (1 mg/l, 5 °C, 9 days): 18 cm^2 | Height (1 mg/l, 5 °C, 9 days): 8.1 cm | Weight of root (1 mg/l, 5 °C, 9 days): 3.7 g | Area of leaf (1 mg/l, 5 °C, 12 days): 20 cm^2 | Height (1 mg/l, 5 °C, 12 days): 8.3 cm | Number of leaf (1 mg/l, 5 °C, 12 days): 3 | Number of tiller (1 mg/l, 5 °C, 12 days): 2 | Weight of root (1 mg/l, 5 °C, 12 days): 4.5 g
